Measurements as given in patent publication US20260078130A1, “NAMPT MODULATORS, PREPARATIONS, AND USES THEREOF” (SIRONAX LTD., priority 2022, published 2026).
Like-named read-outs stand apart in the source and are kept apart here.

What was measured:
[1] = biological target: T1, human enzyme NAMPT (full length) (Homo sapiens, UniProt P43490); assay: NMN fluorescence biochemical assay (stimulation of NMN synthesis by NAMPT); details: for EC50: concentration giving half-maximal activation, read-out: Enzymatic EC50; for Enzymatic Emax: fold change of maximal activation compared to DMSO
T1 construct: human enzyme NAMPT (full length)
Outline: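 Full-length human NAMPT (100 nM) was preincubated 15 min at 37 °C with compound in 50 mM Tris-HCl pH 7.5, 10 mM MgCl2, 2 mM DTT, then reacted 1 h at 37 °C with 50 μM NAM, 100 μM PRPP, 4 mM ATP (stated solution concentrations). NMN was derivatised with acetophenone/KOH then formic acid and read at Ex/Em 382/445 nm; EC50 and Emax (fold over DMSO) reported.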

[2] = tested on: endogenous NAMPT in U2OS cells; assay: Cellular NAD+ modulation assay (NAD/NADH-Glo, U2OS cells); type: cell-based; details: Homo sapiens; for maximal fold induction: read-out: Cellular Emax
Outline: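 Endogenous NAMPT stimulation in U2OS cells treated with compound dilution series for 24 h at 37 °C. Cells lysed with DTAB base, acid-treated 15 min at 60 °C, neutralized, NAD+ read by NAD/NADH-Glo luminescence after 40 min at room temperature. EC50 and Emax (fold over DMSO) derived.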

[3] = NMN fluorescence assay, purified human NAMPT 100 nM
[4] = 24 hours incubation, cellular NAD+
[5] = NMN synthesis by purified human NAMPT (100 nM)
[6] = 24 hours incubation with compound

T1 sequence (P43490 whole entry): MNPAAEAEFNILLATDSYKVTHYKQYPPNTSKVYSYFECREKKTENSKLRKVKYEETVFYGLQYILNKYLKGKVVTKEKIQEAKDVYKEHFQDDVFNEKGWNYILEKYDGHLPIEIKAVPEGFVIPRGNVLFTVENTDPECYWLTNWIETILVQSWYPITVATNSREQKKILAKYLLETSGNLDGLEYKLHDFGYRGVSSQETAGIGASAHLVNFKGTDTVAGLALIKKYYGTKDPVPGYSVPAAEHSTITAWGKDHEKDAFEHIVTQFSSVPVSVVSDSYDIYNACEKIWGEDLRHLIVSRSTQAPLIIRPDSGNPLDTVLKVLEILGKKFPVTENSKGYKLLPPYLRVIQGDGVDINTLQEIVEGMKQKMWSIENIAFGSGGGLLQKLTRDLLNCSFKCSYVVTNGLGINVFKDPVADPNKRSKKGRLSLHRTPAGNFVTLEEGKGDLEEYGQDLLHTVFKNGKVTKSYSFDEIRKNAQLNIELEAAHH

SMILES | EC50 [1, 3] [nM] | Enzymatic Emax [1] | EC50 [2, 4] [nM] | EC50 [1, 5] [nM] | EC50 [2, 6] [nM] | maximal fold induction [2, 4] | maximal fold induction [2, 6]
O=C1c2cc(Br)ccc2CN1Cc1ccc(O)cc1 [Compound 19, 6-bromo-2-(4-hydroxybenzyl) isoindolin-1-one] | – | A (A>3) | – | ≥ 5000 | 500 to 5000 | – | 1.2 to 1.5
[2H]C([2H])([2H])Oc1ccc(CN2C(=O)c3ccccc3C2Cc2c(C)ccnc2C#N)cc1 (centres unmarked) [Compound 583, 3-((2-(4-(methoxy-d3)benzyl)-3-oxoisoindolin-1-yl)methyl)-4-methylpicolinonitrile] | 500 to 5000 | A (A>3) | < 500 | – | – | > 1.5 | –
Cn1nc(C#N)c(Cl)c1CC1c2ccccc2C(=O)N1CC1CC2(CNC(=O)O2)C1 (centres unmarked) [Compound 495, 4-chloro-1-methyl-5-((3-oxo-2-((6-oxo-5-oxa-7-azaspiro[3.4]octan-2-yl)methyl)isoindolin-1-yl)methyl)-1H-pyrazole-3-carbonitrile] | 500 to 5000 | B (3≥B>2) | < 500 | – | – | > 1.5 | –
COc1ccc(CN2C(=O)c3ccccc3C2Cc2ncccc2Br)cn1 (centres unmarked) [Compound 513, 3-((3-bromopyridin-2-yl)methyl)-2-((6-methoxypyridin-3-yl)methyl)isoindolin-1-one] | 500 to 5000 | B (3≥B>2) | 500 to 5000 | – | – | > 1.5 | –
CC1c2ccccc2C(=O)N1Cc1cc(F)c2[nH]c(=O)oc2c1 (centres unmarked) [Compound 89, 4-fluoro-6-((1-methyl-3-oxoisoindolin-2-yl)methyl)benzo[d]oxazol-2(3H)-one] | – | B (3≥B>2) | – | ≥ 5000 | 5000 to 50000 | – | 1.2 to 1.5
COc1ccc(CN2C(=O)c3ccccc3C2(C)Cc2c(Cl)cnn2C)cn1 (centres unmarked) [Compound 620, 3-((4-chloro-1-methyl-1H-pyrazol-5-yl)methyl)-2-((6-methoxypyridin-3-yl)methyl)-3-methylisoindolin-1-one] | ≥ 5000 | B (3≥B>2) | 500 to 5000 | – | – | 1.2 to 1.5 | –
O=C1c2ccccc2C(Cc2ncccc2Br)N1Cc1ccc2[nH]c(=O)oc2c1F (centres unmarked) [Compound 224, 6-((1-((3-bromopyridin-2-yl)methyl)-3-oxoisoindolin-2-yl)methyl)-7-fluorobenzo[d]oxazol-2(3H)-one] | – | A (A>3) | – | < 500 | 500 to 5000 | – | > 1.5
C[C@H]1c2cc(C#N)ccc2C(=O)N1Cc1ccc2[nH]c(=O)oc2c1 (single isomer, unassigned) [Compound 186] | – | B (3≥B>2) | – | ≥ 5000 | 500 to 5000 | – | > 1.5
O=C1c2ccccc2C(Cc2ncccc2Br)N1CC1CCc2[nH]c(=O)oc2C1 (centres unmarked) [Compound 400, 6-((1-((3-bromopyridin-2-yl)methyl)-3-oxoisoindolin-2-yl)methyl)-4,5,6,7-tetrahydrobenzo[d]oxazol-2(3H)-one] | 500 to 5000 | B (3≥B>2) | 500 to 5000 | – | – | > 1.5 | –

Now from value to molecule, other results behind:

EC50 [1, 3] [nM] | Enzymatic Emax [1] | EC50 [2, 4] [nM] | EC50 [1, 5] [nM] | EC50 [2, 6] [nM] | SMILES | maximal fold induction [2, 4] | maximal fold induction [2, 6]
500 to 5000 | B (3≥B>2) | 500 to 5000 | – | – | Cn1ncc(Cl)c1CC1c2cc(CN3CCOCC3)ccc2C(=O)N1CC1CC2(CNC(=O)O2)C1 (centres unmarked) [Compound 461, 2-((3-((4-chloro-1-methyl-1H-pyrazol-5-yl)methyl)-5-(morpholinomethyl)-1-oxoisoindolin-2-yl)methyl)-5-oxa-7-azaspiro[3.4]octan-6-one] | > 1.5 | –
≥ 5000 | B (3≥B>2) | 500 to 5000 | – | – | CSc1ccc(CN2C(=O)c3ccccc3C2Cc2c(Cl)cnn2C)cc1 (centres unmarked) [Compound 542, 3-((4-chloro-1-methyl-1H-pyrazol-5-yl)methyl)-2-(4-(methylthio)benzyl)isoindolin-1-one] | 1.2 to 1.5 | –
≥ 5000 | B (3≥B>2) | 5000 to 50000 | – | – | CNCc1ccc2c(c1)C(=O)N(Cc1ccc3[nH]nnc3c1)C2Cc1c(Cl)cnn1C (centres unmarked) [Compound 422, 2-((1H-benzo[d][1,2,3]triazol-5-yl)methyl)-3-((4-chloro-1-methyl-1H-pyrazol-5-yl)methyl)-6-((methylamino)methyl)isoindolin-1-one] | 1.2 to 1.5 | –
< 500 | B (3≥B>2) | < 500 | – | – | Cn1ncc(Cl)c1CC1c2ccccc2C(=O)N1CC#Cc1c[nH]nc1Cl (centres unmarked) [Compound 477, 3-((4-chloro-1-methyl-1H-pyrazol-5-yl)methyl)-2-(3-(3-chloro-1H-pyrazol-4-yl)prop-2-yn-1-yl)isoindolin-1-one] | > 1.5 | –
– | A (A>3) | – | 500 to 5000 | 500 to 5000 | CCc1cccnc1CC1c2ccccc2C(=O)N1Cc1ccc2[nH]c(=O)oc2c1 (centres unmarked) [Compound 182, 6-((1-((3-ethylpyridin-2-yl)methyl)-3-oxoisoindolin-2-yl)methyl)benzo[d]oxazol-2(3H)-one] | – | > 1.5
< 500 | B (3≥B>2) | 500 to 5000 | – | – | Cn1nc(C2CNC2)c(Cl)c1CC1c2ccccc2C(=O)N1Cc1ccc2[nH]nnc2c1 (centres unmarked) [Compound 438, 2-((1H-benzo[d][1,2,3]triazol-5-yl)methyl)-3-((3-(azetidin-3-yl)-4-chloro-1-methyl-1H-pyrazol-5-yl)methyl)isoindolin-1-one] | > 1.5 | –
< 500 | A (A>3) | < 500 | – | – | Cn1ncc(Cl)c1CC1c2ccc(F)cc2C(=O)N1Cc1ccc2[nH]nnc2c1 (centres unmarked) [Compound 340, 2-((1H-benzo[d][1,2,3]triazol-5-yl)methyl)-3-((4-chloro-1-methyl-1H-pyrazol-5-yl)methyl)-6-fluoroisoindolin-1-one] | > 1.5 | –
– | A (A>3) | – | < 500 | < 500 | N#Cc1ccc(Br)c(CC2c3ccccc3C(=O)N2Cc2ccc3[nH]c(=O)oc3c2)n1 (centres unmarked) [Compound 221, 5-bromo-6-((3-oxo-2-((2-oxo-2,3-dihydrobenzo[d]oxazol-6-yl)methyl)isoindolin-1-yl)methyl)picolinonitrile] | – | > 1.5
– | A (A>3) | – | < 500 | < 500 | O=C1c2ccccc2C(Cc2ncccc2Cl)N1Cc1ccc2[nH]c(=O)oc2c1 (centres unmarked) [Compound 159, 6-((1-((3-chloropyridin-2-yl)methyl)-3-oxoisoindolin-2-yl)methyl)benzo[d]oxazol-2(3H)-one] | – | > 1.5
500 to 5000 | A (A>3) | < 500 | – | – | COc1ccc(CN2C(=O)c3ccc(C4CC4)cc3C2Cc2c(C)ncnc2C#N)cc1 (centres unmarked) [Compound 638, 5-((6-cyclopropyl-2-(4-methoxybenzyl)-3-oxoisoindolin-1-yl)methyl)-6-methylpyrimidine-4-carbonitrile] | 1.2 to 1.5 | –
– | A (A>3) | – | 500 to 5000 | 5000 to 50000 | Cn1cnc(C#N)c1CC1c2ccccc2C(=O)N1Cc1ccc2[nH]nnc2c1 (centres unmarked) [Compound 315, 5-((2-((1H-benzo[d][1,2,3]triazol-5-yl)methyl)-3-oxoisoindolin-1-yl)methyl)-1-methyl-1H-imidazole-4-carbonitrile] | – | 1.2 to 1.5
